# Test results reported in ChEMBL document CHEMBL3797025, “Spirooxadiazoline oxindoles with promising in vitro antitumor activities” (Medchemcomm, 2016).
# Active and inactive are the calls of the source. The rule behind the calls is not given here.
# What was measured:
# [1] = Antiproliferative activity against human p53 +/+ HCT116 cells measured after 72 hrs by MTS assay; type: functional; details: HCT-116, 72 h
# [2] = Antiproliferative activity against human p53 -/- HCT116 cells measured after 72 hrs by MTS assay; type: functional; details: HCT-116, 72 h
# HepG2 = assay: Antiproliferative activity against human HepG2 cells expressing wild-type P53 measured after 72 hrs by MTS assay; type: functional; details: HepG2, 72 h
# [3] = Antiproliferative activity against human SW620 cells expressing P53 mutant measured after 72 hrs by MTS assay; type: functional; details: SW-620, 72 h
# HCT-116 [4] = assay: Induction of apoptosis in human p53 +/+ HCT116 cells assessed as activation of caspase3 at 5 or 10 uM after 24 hrs by Caspase-Glo 3/7 assay; type: functional, cell-based
# HCT-116 [5] = assay: Induction of apoptosis in human p53 +/+ HCT116 cells assessed as activation of caspase7 at 5 or 10 uM after 24 hrs by Caspase-Glo 3/7 assay; type: functional, cell-based
# HCT-116 [6] = assay: Induction of apoptosis in human p53 +/+ HCT116 cells assessed as increase in PARP cleavage at 5 or 10 uM after 24 hrs by western blot analysis; type: functional, cell-based
# [7] = target: Cellular tumor antigen p53 (Homo sapiens) (UniProt P04637); assay: Induction of p53 phosphorylation at serine-15 in human p53 +/+ HCT 116 cells bat 5 or 10 uM after 24 hrs by western blot analysis; type: cell-based
# Cellular tumor antigen p53 (Homo sapiens), sequence (P04637 whole entry, looked up): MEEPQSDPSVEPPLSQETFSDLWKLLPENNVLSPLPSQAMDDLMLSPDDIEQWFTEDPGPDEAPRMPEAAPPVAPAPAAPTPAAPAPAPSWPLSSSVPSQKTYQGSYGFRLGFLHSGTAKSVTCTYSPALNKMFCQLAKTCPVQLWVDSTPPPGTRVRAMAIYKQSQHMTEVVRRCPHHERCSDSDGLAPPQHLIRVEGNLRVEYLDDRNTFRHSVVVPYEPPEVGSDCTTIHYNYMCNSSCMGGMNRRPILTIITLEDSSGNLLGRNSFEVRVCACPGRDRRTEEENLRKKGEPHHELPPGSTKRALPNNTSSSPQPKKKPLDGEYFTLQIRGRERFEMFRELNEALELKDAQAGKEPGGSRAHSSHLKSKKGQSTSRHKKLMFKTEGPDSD
# [8] = Chemical stability in phosphate buffer at pH 7.4 and 37 degC measured for 3 days by HPLC analysis; type: physicochemical; details: pH 7.4, 72 h
# [9] = Metabolic stability at human plasma assessed as compound degradation at 37 degC after 72 hrs by HPLC analysis; type: ADME, cell-free; details: read-out: Drug degradation
# [10] = Half life in Sprague-Dawley rat liver microsomes at 37 degC in presence of NADPH generating system by HPLC analysis; type: ADME
SMILES,GI50 [1] [µM],GI50 [2] [µM],also measured
O=C1Nc2ccc(Cl)cc2[C@]12ON=C(c1ccccc1)N2c1cccc(Cl)c1,26.4,41.6,
O=C1Nc2ccccc2[C@]12ON=C(c1ccc(Cl)cc1)N2c1ccc(Cl)cc1,31.2,,
O=C1Nc2cc(Cl)ccc2[C@]12ON=C(c1cccc(Cl)c1)N2c1cccc(Cl)c1,6.6,7.8,GI50 (HepG2): 4.4 µM; GI50 [3]: 6.7 µM
O=C1Nc2ccccc2[C@]12ON=C(c1cccc(Cl)c1)N2c1ccc(Cl)cc1,38.4,,
Cc1ccc(C2=NO[C@@]3(C(=O)Nc4cc(Cl)ccc43)N2c2ccccc2)cc1,50.6,,
O=C1Nc2cc(Cl)ccc2[C@]12ON=C(c1ccc(Cl)cc1)N2c1cccc(Cl)c1,20.2,,
O=C1Nc2cc(Cl)ccc2[C@]12ON=C(c1ccc(Cl)cc1)N2c1ccccc1,26.5,30.6,
O=C1Nc2ccc(Cl)cc2[C@]12ON=C(c1ccccc1)N2c1ccc(Cl)cc1,27.1,27,
O=C1Nc2ccc(Cl)cc2[C@]12ON=C(c1cccc(Cl)c1)N2c1cccc(Cl)c1,4.6,6.8,GI50 (HepG2): 3.3 µM; GI50 [3]: 3.9 µM
O=C1Nc2ccc(Cl)cc2[C@]12ON=C(c1cccc(Cl)c1)N2c1ccc(Cl)cc1,21.3,21.8,
O=C1Nc2cc(Cl)ccc2[C@]12ON=C(c1ccc(Cl)cc1)N2c1ccc(Cl)cc1,13.2,,
O=C1Nc2ccc(Cl)cc2[C@]12ON=C(c1ccc(Cl)cc1)N2c1cccc(Cl)c1,25.6,29,
O=C1Nc2ccc(Br)cc2[C@]12ON=C(c1ccccc1)N2c1cccc(Cl)c1,4.7,7.5,GI50 (HepG2): 3.5 µM; GI50 [3]: 4.2 µM
O=C1Nc2ccccc2[C@]12ON=C(c1ccccc1)N2c1ccc(Cl)cc1,54.5,,
O=C1Nc2ccc(Cl)cc2[C@]12ON=C(c1ccccc1)N2c1ccccc1,39.1,,
O=C1Nc2ccc(Br)cc2[C@]12ON=C(c1cccc(Cl)c1)N2c1ccc(F)c(Cl)c1,6.6,7.2,GI50 (HepG2): 4 µM; GI50 [3]: 6.7 µM

SMILES,GI50 [1] [µM],GI50 [2] [µM],also measured
O=C1Nc2ccc(Br)cc2[C@]12ON=C(c1cccc(Br)c1)N2c1cccc(Br)c1,3.2,6,GI50 (HepG2): 2.2 µM; GI50 [3]: 3.7 µM
O=C1Nc2ccccc2[C@]12ON=C(c1ccccc1)N2c1cccc(Cl)c1,70.1,,
O=C1Nc2ccc(Br)cc2[C@]12ON=C(c1ccccc1)N2c1ccccc1,13.5,,
O=C1Nc2ccc(Br)cc2[C@]12ON=C(c1ccc(Cl)cc1)N2c1cccc(Cl)c1,7.7,12.3,GI50 (HepG2): 4.1 µM; GI50 [3]: 8 µM
O=C1Nc2ccc(Br)cc2[C@]12ON=C(c1ccccc1)N2c1ccc(Cl)cc1,21.9,25.8,
O=C1Nc2ccccc2[C@]12ON=C(c1ccccc1)N2c1ccc(F)cc1,99.6,,
O=C1Nc2ccc(Cl)cc2[C@]12ON=C(c1ccc(Cl)cc1)N2c1ccc(Cl)cc1,17.6,18,
O=C1Nc2ccccc2[C@]12ON=C(c1cccc(Cl)c1)N2c1cccc(Cl)c1,32.6,,
O=C1Nc2cc(Cl)ccc2[C@]12ON=C(c1cccc(Cl)c1)N2c1ccc(Cl)cc1,28.7,,
O=C1Nc2ccc(Br)cc2[C@]12ON=C(c1cccc(Cl)c1F)N2c1cccc(Cl)c1,3.2,4.4,GI50 (HepG2): 2.5 µM; GI50 [3]: 3.5 µM
O=C1Nc2ccc(Br)cc2[C@]12ON=C(c1cccc(Cl)c1)N2c1cccc(Cl)c1,2,2.9,GI50 (HepG2): 2.1 µM; GI50 [3]: 2.1 µM; Activity (HCT-116 [4]): Active; Activity (HCT-116 [5]): Active; Activity (HCT-116 [6]): Active; Activity [7]: inactive; Stability [8]: Stable; metabolised at 72 h [9]: 38%; half-life [10]: 33.5 min
O=C1Nc2cc(Cl)ccc2[C@]12ON=C(c1ccccc1)N2c1ccccc1,28.4,35.5,
COc1ccc(C2=N[C@@H](c3ccc(Cl)cc3)[C@@H](c3ccc(Cl)cc3)N2C(=O)N2CCNC(=O)C2)c(OC(C)C)c1 [NUTLIN-3],4,47.8,
O=C1Nc2cc(Cl)ccc2[C@]12ON=C(c1ccccc1)N2c1ccc(Cl)cc1,31.8,,
O=C1Nc2ccccc2[C@]12ON=C(c1ccc(Cl)cc1)N2c1cccc(Cl)c1,33.7,,
O=C1Nc2ccc(Br)cc2[C@]12ON=C(c1cccc(Cl)c1)N2c1cccc(Cl)c1F,1.7,2,GI50 (HepG2): 1.2 µM; GI50 [3]: 2 µM
